# Patent publication US20150105252A1, “SUBSTITUTED PYRAZOLES AS HERBICIDES” (E I DU PONT DE NEMOURS AND COMPANY, priority 2013, published 2015)
# Columns and labels:
# velvetleaf [1] = experiment: Test C preemergence; type: in vivo, Abutilon theophrasti; details: for Velvetleaf plant response rating / Plant response rating, Velvetleaf: preemergence; for Plant response rating, Velvetleaf: 125 g ai/ha, scale 0 to 100, 0 = no effect, 100 = complete control
# Outline: (§1)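 Greenhouse pot test: preemergence application onto freshly seeded loam/sand mix, postemergence application onto seedlings (1–4 leaves, 2–18 cm) in peat-vermiculite substrate. Responses scored visually 13 to 15 days later relative to controls, where 0 means no effect and 100 means complete control; a dash indicates no result.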
# barnyardgrass [2] = experiment: Test B flood; type: in vivo, Echinochloa crus-galli; details: 250 g ai/ha, visual rating on 0 to 100 scale (0 no effect, 100 complete control), 13 to 15 days
# Outline: (§2)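 Plants were grown to the 2-leaf stage, then pots were flooded to 3 cm above the soil and compounds were applied directly into the paddy water. Water depth was held for the whole test; after 13 to 15 days in a greenhouse, injury was visually rated against untreated controls (0 = no effect, 100 = complete control).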
# corn [3] = experiment: Test C preemergence; type: in vivo, Zea mays; details: for Corn plant response rating / Plant response rating, Corn: preemergence; for Plant response rating, Corn: 125 g ai/ha, scale 0 to 100, 0 = no effect, 100 = complete control
# Outline: as §1
# wheat [4] = experiment: Test A preemergence; type: in vivo, Triticum aestivum; details: preemergence
# Outline: (§3)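 Seeds were sown in a loam soil–sand blend and given a directed soil spray preemergence; postemergence plants at 2–10 cm, one- to two-leaf stage, were sprayed with compound in non-phytotoxic solvent with surfactant. After about 10 days in a greenhouse, injury was visually rated against untreated controls (0 = no effect, 100 = complete control).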
# foxtail, giant = experiment: Test C preemergence; type: in vivo, Setaria faberii; details: for Foxtail, Giant plant response rating / Plant response rating, Foxtail, Giant: preemergence; for Plant response rating, Foxtail, Giant: 125 g ai/ha, scale 0 to 100, 0 = no effect, 100 = complete control
# Outline: as §1
# pigweed = experiment: Test C preemergence; type: in vivo, Amaranthus retroflexus; details: for Pigweed plant response rating / Plant response rating, Pigweed: preemergence; for Plant response rating, Pigweed: 125 g ai/ha, scale 0 to 100, 0 = no effect, 100 = complete control
# Outline: as §1
# velvetleaf [5] = experiment: Test A postemergence; type: in vivo, Abutilon theophrasti
# Outline: as §3
# barnyardgrass [6] = experiment: Test A preemergence; type: in vivo, Echinochloa crus-galli; details: preemergence
# Outline: as §3
# wheat [7] = experiment: Test A postemergence; type: in vivo, Triticum aestivum
# Outline: as §3
# sedge, umbrella = experiment: Test B flood; type: in vivo, Cyperus difformis; details: 250 g ai/ha, visual rating on 0 to 100 scale (0 no effect, 100 complete control), 13 to 15 days
# Outline: as §2
# ryegrass, Italian = experiment: Test C preemergence; type: in vivo, Lolium multiflorum; details: for Ryegrass, Italian plant response rating / Plant response rating, Ryegrass, Italian: preemergence; for Plant response rating, Ryegrass, Italian: 125 g ai/ha, scale 0 to 100, 0 = no effect, 100 = complete control
# Outline: as §1
# morningglory = experiment: Test C preemergence; type: in vivo, Ipomoea coccinea; details: for Morningglory plant response rating / Plant response rating, Morningglory: preemergence; for Plant response rating, Morningglory: 125 g ai/ha, scale 0 to 100, 0 = no effect, 100 = complete control
# Outline: as §1
# ragweed = experiment: Test C preemergence; type: in vivo, Ambrosia elation; details: for Ragweed plant response rating / Plant response rating, Ragweed: preemergence; for Plant response rating, Ragweed: 125 g ai/ha, scale 0 to 100, 0 = no effect, 100 = complete control
# Outline: as §1
# corn [8] = experiment: Test A postemergence; type: in vivo, Zea mays
# Outline: as §3
# [9] = 31 g ai/ha, visual rating, scale 0 to 100 (0 no effect, 100 complete control), 13 to 15 days
# [10] = 62 g ai/ha, scale 0 to 100 (0 no effect, 100 complete control), 13 to 15 days
# [11] = 125 g ai/ha, visual injury, 0 to 100 scale, approx. 10 days
# [12] = 500 g ai/ha, visual injury after approx. 10 days, 0 to 100 scale (0 no effect, 100 complete control)
# [13] = Postemergence, 500 g ai/ha, 0 to 100 scale (0 no effect, 100 complete control)
# [14] = postemergence, 125 g ai/ha, about 10 days, visual rating on 0 to 100 scale (0 no effect, 100 complete control)
# [15] = 250 g ai/ha, scale 0 to 100, 0 is no effect, 100 is complete control
SMILES,Velvetleaf plant response rating (velvetleaf [1]; [9]),Velvetleaf plant response rating (velvetleaf [1]; [10]),"Plant response rating, Velvetleaf (velvetleaf [1]; 13 to 15 days)","Plant response rating, Barnyardgrass (barnyardgrass [2])",Corn plant response rating (corn [3]; [9]),Corn plant response rating (corn [3]; [10]),"Plant response rating, Corn (corn [3]; 13 to 15 days)",Wheat plant response rating (wheat [4]; [11]),Wheat plant response rating (wheat [4]; [12]),"Foxtail, Giant plant response rating (foxtail, giant; [9])","Foxtail, Giant plant response rating (foxtail, giant; [10])","Plant response rating, Foxtail, Giant (foxtail, giant; 13 to 15 days)",Pigweed plant response rating (pigweed; [9]),Pigweed plant response rating (pigweed; [10]),"Plant response rating, Pigweed (pigweed; 13 to 15 days)",Velvetleaf plant response rating (velvetleaf [5]; [13]),Velvetleaf plant response rating (velvetleaf [5]; [14]),Barnyardgrass plant response rating (barnyardgrass [6]; [11]),Barnyardgrass plant response rating (barnyardgrass [6]; [12]),Wheat plant response rating (wheat [7]; [13]),other results
CCCNC(=O)c1cc(CC)n(Cc2ccnc(OC(F)F)c2)n1 [Compound 132],55,100,100,60,55,25,95,80,100,95,100,100,100,100,100,100,100,100,100,90,"Plant response rating (scale of 0 to 100), Velvetleaf (velvetleaf [1]; Preemergence, 250 g ai/ha): 100; Plant response rating (scale of 0 to 100), Corn (corn [3]; Preemergence, 250 g ai/ha): 95; Plant response rating (scale of 0 to 100), Foxtail, Giant (foxtail, giant; Preemergence, 250 g ai/ha): 100; Plant response rating (scale of 0 to 100), Pigweed (pigweed; Preemergence, 250 g ai/ha): 100; Wheat plant response rating (wheat [7]; [14]): 80; Plant response rating, Sedge, Umbrella (sedge, umbrella): 90; Plant response rating (scale of 0 to 100), Ryegrass, Italian (ryegrass, Italian; Preemergence, 250 g ai/ha): 98; Ryegrass, Italian plant response rating (ryegrass, Italian; [9]): 15; Ryegrass, Italian plant response rating (ryegrass, Italian; [10]): 85; Plant response rating, Ryegrass, Italian (ryegrass, Italian; 13 to 15 days): 98; Plant response rating (scale of 0 to 100), Morningglory (morningglory; Preemergence, 250 g ai/ha): 100; Morningglory plant response rating (morningglory; [9]): 60; Morningglory plant response rating (morningglory; [10]): 100; Plant response rating, Morningglory (morningglory; 13 to 15 days): 100; Plant response rating (scale of 0 to 100), Ragweed (ragweed; Preemergence, 250 g ai/ha): 100; Ragweed plant response rating (ragweed; [9]): 70; Ragweed plant response rating (ragweed; [10]): 90; Plant response rating, Ragweed (ragweed; 13 to 15 days): 100; Corn plant response rating (corn [8]; [13]): 90; Corn plant response rating (corn [8]; [14]): 70"
CCc1cc(C(=O)NC(C)C)nn1Cc1ccnc(C(F)(F)F)c1 [Compound 139],0,10,95,60,25,30,85,50,100,90,100,100,55,90,90,90,40,90,100,90,"Velvetleaf plant response rating (velvetleaf [1]; [15]): 100; Corn plant response rating (corn [3]; [15]): 80; Foxtail, Giant plant response rating (foxtail, giant; [15]): 100; Pigweed plant response rating (pigweed; [15]): 100; Wheat plant response rating (wheat [7]; [14]): 50; Plant response rating, Sedge, Umbrella (sedge, umbrella): 100; Ryegrass, Italian plant response rating (ryegrass, Italian; [9]): 10; Ryegrass, Italian plant response rating (ryegrass, Italian; [10]): 60; Plant response rating, Ryegrass, Italian (ryegrass, Italian; 13 to 15 days): 90; Ryegrass, Italian plant response rating (ryegrass, Italian; [15]): 90; Morningglory plant response rating (morningglory; [9]): 5; Morningglory plant response rating (morningglory; [10]): 35; Plant response rating, Morningglory (morningglory; 13 to 15 days): 98; Morningglory plant response rating (morningglory; [15]): 98; Ragweed plant response rating (ragweed; [9]): 15; Ragweed plant response rating (ragweed; [10]): 75; Plant response rating, Ragweed (ragweed; 13 to 15 days): 90; Ragweed plant response rating (ragweed; [15]): 95; Corn plant response rating (corn [8]; [13]): 90; Corn plant response rating (corn [8]; [14]): 50"
O=C(NCC(F)(F)F)c1cc(CCCl)n(Cc2ccnc(C(F)(F)F)c2)n1 [Compound 143],100,98,100,45,40,75,90,70,100,100,100,100,100,100,100,90,80,90,100,80,"Velvetleaf plant response rating (velvetleaf [1]; [15]): 100; Corn plant response rating (corn [3]; [15]): 95; Foxtail, Giant plant response rating (foxtail, giant; [15]): 100; Pigweed plant response rating (pigweed; [15]): 100; Wheat plant response rating (wheat [7]; [14]): 60; Plant response rating, Sedge, Umbrella (sedge, umbrella): 95; Ryegrass, Italian plant response rating (ryegrass, Italian; [9]): 35; Ryegrass, Italian plant response rating (ryegrass, Italian; [10]): 80; Plant response rating, Ryegrass, Italian (ryegrass, Italian; 13 to 15 days): 90; Ryegrass, Italian plant response rating (ryegrass, Italian; [15]): 90; Morningglory plant response rating (morningglory; [9]): 100; Morningglory plant response rating (morningglory; [10]): 100; Plant response rating, Morningglory (morningglory; 13 to 15 days): 100; Morningglory plant response rating (morningglory; [15]): 100; Ragweed plant response rating (ragweed; [9]): 98; Ragweed plant response rating (ragweed; [10]): 98; Plant response rating, Ragweed (ragweed; 13 to 15 days): 95; Ragweed plant response rating (ragweed; [15]): 100; Corn plant response rating (corn [8]; [13]): 90; Corn plant response rating (corn [8]; [14]): 60"
